Experimental data: the OligoGym collection
After the bases stand the sugars from the 5' end (letter, count) and the backbone: PS all phosphorothioate, else s phosphorothioate and o phosphodiester by linkage. Methylation of C is not given here. l = locked nucleic acid (LNA); d = 2'-deoxy (DNA)

Target: SNHG14
Conditions: ASO
[1] = Mouse Primary Neuronal Cell, 0.005 µM

Row | Sequence | target mRNA inhibition (Human Neuronal Cell, 7.5 µM) | target mRNA inhibition (Human Neuronal Cell, 0.2 µM) | target mRNA inhibition (Human Neuronal Cell, 1 µM) | further results
1 | CTTTTAACCAGAGTGGCATC (sugars l2 d16 l2, PS) | 57% | – | – | –
2 | GAAAATCTCAACTACCATT (sugars l5 d12 l2, PS) | 60% | – | – | –
3 | GACTACATTCTCAATA (sugars l3 d10 l3, PS) | – | 30% | 50% | –
4 | GATCATTCTCAACAATT (sugars l5 d6 l1 d1 l4, PS) | 0% | – | – | –
5 | GATCATTCTCAACAATTAA (sugars lldllddddddddlldlll, PS) | 28% | – | – | –
6 | GCAACATTATTAACCACCT (sugars ldddddddddddlldldll, PS) | 39% | – | – | –
7 | GCAACATTATTAACCACCT (sugars ldlddlddddddlldddll, PS) | 44% | – | – | –
8 | GCACATTCTTTCTATAC (sugars l1 d1 l3 d8 l4, PS) | 59% | – | – | –
9 | GCACATTCTTTCTATAC (sugars l3 d12 l2, PS) | 52% | – | – | –
10 | GCACATTCTTTCTATAC (sugars ldldlddddddlddlll, PS) | 49% | – | – | –
11 | GCACATTCTTTCTATACC (sugars l1 d1 l2 d11 l3, PS) | 64% | – | – | –
12 | GCACATTCTTTCTATACC (sugars l1 d3 l1 d11 l2, PS) | 54% | – | – | –
13 | GCATTCAACCCTAATCA (sugars l3 d12 l2, PS) | – | 39% | 50% | –
14 | GCTAATTTAAATTTCC (sugars l4 d10 l2, PS) | – | 49% | 67% | –
15 | GCTCCATATTTAAATC (sugars l4 d10 l2, PS) | – | 7% | 20% | –
16 | GCTTCATATTTCTCCA (sugars l2 d11 l3, PS) | – | – | 63% | –
17 | GCTTTTAACCAGAGT (sugars l3 d9 l3, PS) | 73% | – | – | –
18 | GCTTTTAACCAGAGTGGCA (sugars l1 d16 l2, PS) | 46% | – | – | –
19 | GCTTTTAACCAGAGTGGCAT (sugars l1 d16 l3, PS) | 53% | – | – | –
20 | GTTAACCTATATTTCA (sugars l4 d10 l2, PS) | – | 15% | 6% | –
21 | GTTACATATTCTTTCAC (sugars l3 d11 l3, PS) | – | 53% | 67% | –
22 | GTTACCTACATCTCATA (sugars l2 d13 l2, PS) | – | -14% | 11% | target mRNA inhibition (Human Neuronal Cell, 5 µM): 13%; target mRNA inhibition [1]: 81%

Row | Sequence | target mRNA inhibition (Human Neuronal Cell, 7.5 µM) | target mRNA inhibition (Human Neuronal Cell, 0.2 µM) | target mRNA inhibition (Human Neuronal Cell, 1 µM) | further results
23 | GTTCTACTATACTTTCCT (sugars l1 d14 l3, PS) | 46% | – | – | –
24 | GTTCTCTTTATTTCTTCT (sugars l2 d12 l4, PS) | – | 31% | 42% | –
25 | GTTTATACCCTTTCCAAT (sugars l1 d1 l1 d13 l2, PS) | 56% | – | – | –
26 | GTTTATACCCTTTCCAAT (sugars ldldldddddddllddll, PS) | 39% | – | – | –
27 | GTTTCCATCTACTATTAA (sugars ldddldddddddldllll, PS) | 62% | – | – | –
28 | GTTTCCATCTACTATTAA (sugars ldldllddddddddddll, PS) | 58% | – | – | –
29 | GTTTCCATCTACTATTAA (sugars ldlllddddddddlddll, PS) | 49% | – | – | –
30 | GTTTCCATCTACTATTAA (sugars llddldddddddldldll, PS) | 31% | – | – | –
31 | GTTTCCATCTACTATTAAT (sugars ldldddddddddddldlll, PS) | 44% | – | – | –
32 | GTTTCCATCTACTATTAAT (sugars llldlddddddddldddll, PS) | 50% | – | – | –
33 | TAAAATTATTTATACACCA (sugars ldddllddddddllddlll, PS) | 55% | – | – | –
34 | TAAAATTATTTATACACCA (sugars llldllddddddlllldll, PS) | 7% | – | – | –
35 | TAAAATTATTTATACACCAT (sugars l7 d6 l1 d3 l3, PS) | 51% | – | – | –
36 | TAAAATTATTTATACACCAT (sugars ldldllddddddddldllll, PS) | 45% | – | – | –
37 | TAAAATTATTTATACACCAT (sugars lldlllldddddddllldll, PS) | 26% | – | – | –
38 | TAAAGATCCCATCACT (sugars l4 d10 l2, PS) | – | 31% | 50% | –
39 | TACACATCTTGTATAC (sugars l3 d10 l3, PS) | – | 14% | 36% | –
40 | TACACTTAATTATACTTCCA (sugars l1 d2 l1 d13 l3, PS) | 54% | – | – | –
41 | TACACTTAATTATACTTCCA (sugars lddldldddddddlldddll, PS) | 55% | – | – | –
42 | TACACTTAATTATACTTCCA (sugars ldldddlddddddddlddll, PS) | 58% | – | – | –
43 | TACATCTCATACTTGC (sugars l2 d12 l2, PS) | – | 0% | -10% | target mRNA inhibition (Human Neuronal Cell, 5 µM): 8%; target mRNA inhibition [1]: 80.8%
44 | TACATCTCATACTTGCT (sugars l4 d11 l2, PS) | – | – | – | target mRNA inhibition [1]: 95.3%

Row | Sequence | target mRNA inhibition (Human Neuronal Cell, 7.5 µM) | target mRNA inhibition (Human Neuronal Cell, 0.2 µM) | target mRNA inhibition (Human Neuronal Cell, 1 µM) | further results
45 | TACATTATTATTTAACC (sugars l4 d11 l2, PS) | – | 11% | 6% | –
46 | TACCTACATCTCATACT (sugars l4 d11 l2, PS) | – | -53% | -18% | target mRNA inhibition (Human Neuronal Cell, 5 µM): 11%; target mRNA inhibition [1]: 94.4%
47 | TACTATCTTTGACATT (sugars l4 d10 l2, PS) | – | 49% | 58% | –
48 | TACTCTGCAATACACCA (sugars ldddlddddddddldll, PS) | 68% | – | – | –
49 | TAGACTAATCCTCTTA (sugars l4 d10 l2, PS) | – | 48% | 56% | –
50 | TAGCCTACTTTAATAT (sugars l4 d10 l2, PS) | – | 25% | 11% | –
51 | TATAAGCTTACCTCAT (sugars l3 d10 l3, PS) | – | 50% | 66% | –
52 | TATACCTTTCTTTAACCCT (sugars l2 d15 l2, PS) | – | 13% | 37% | –
53 | TATACCTTTCTTTAACCCTT (sugars l2 d3 l1 d12 l2, PS) | 43% | – | – | –
54 | TATACCTTTCTTTAACCCTT (sugars lddddlddddddddddldll, PS) | 61% | – | – | –
55 | TATACCTTTCTTTAACCCTT (sugars lddddldddddddddlddll, PS) | 61% | – | – | –
56 | TATACCTTTCTTTAACCCTT (sugars ldddlddddddddddlddll, PS) | 54% | – | – | –
57 | TATCAATATCTTCTCA (sugars l2 d10 l4, PS) | – | 46% | 61% | –
58 | TATCAGTTATCCAATA (sugars l4 d10 l2, PS) | – | 42% | 51% | –
59 | TATCTATTTAATTTACAC (sugars l3 d12 l3, PS) | – | 8% | 0% | –
60 | TATCTTTCCATTTATTTCC (sugars l1 d2 l2 d12 l2, PS) | 47% | – | – | –
61 | TATCTTTCCATTTATTTCC (sugars lddddldddddddddldll, PS) | 52% | – | – | –
62 | TATCTTTCCATTTATTTCCA (sugars l1 d2 l1 d14 l2, PS) | 45% | – | – | –
63 | TATCTTTCCATTTATTTCCA (sugars l2 d16 l2, PS) | -12% | – | – | –
64 | TATCTTTCCATTTATTTCCA (sugars lddddlddddddddllddll, PS) | 50% | – | – | –
65 | TATCTTTGACATTCCAT (sugars l2 d11 l4, PS) | – | 48% | 52% | –
66 | TATGACTCCAATAATC (sugars l3 d10 l3, PS) | – | 30% | 44% | –

Row | Sequence | target mRNA inhibition (Human Neuronal Cell, 7.5 µM) | target mRNA inhibition (Human Neuronal Cell, 0.2 µM) | target mRNA inhibition (Human Neuronal Cell, 1 µM) | further results
67 | TATGACTTATTCCATA (sugars l2 d10 l4, PS) | – | 18% | 14% | –
68 | TATTGAACCAATTCTA (sugars l3 d10 l3, PS) | – | 34% | 47% | –
69 | TATTGATTCAATTCCCT (sugars l1 d1 l3 d10 l2, PS) | 71% | – | – | –
70 | TATTGATTCAATTCCCT (sugars l2 d11 l4, PS) | – | 58% | 71% | –
71 | TATTGATTCAATTCCCT (sugars l2 d12 l3, PS) | 59% | – | – | –
72 | TATTGATTCAATTCCCT (sugars lddllddddddddldll, PS) | 64% | – | – | –
73 | TATTGATTCAATTCCCT (sugars ldlldddddddllldll, PS) | 19% | – | – | –
74 | TATTGATTCAATTCCCT (sugars lldddddddddldldll, PS) | 60% | – | – | –
75 | TCAAAGCACACCACCAC (sugars l2 d12 l3, PS) | – | 34% | 47% | –
76 | TCAAGAATTCTCTCCTT (sugars l2 d11 l4, PS) | – | 47% | 51% | –
77 | TCAGAATAATTCTCCT (sugars l3 d10 l3, PS) | – | 49% | 57% | –
78 | TCATCATATTGAACCA (sugars l3 d10 l3, PS) | – | 65% | 68% | –
79 | TCATTGAACAACTCTTC (sugars l4 d11 l2, PS) | – | 31% | 17% | –
80 | TCCATGCTACATAAAC (sugars l4 d10 l2, PS) | – | 52% | 56% | –
81 | TCCATTTATTTCCATTTAT (sugars l2 d11 l2 d2 l2, PS) | 53% | – | – | –
82 | TCCATTTATTTCCATTTATT (sugars llddlddddddddldlddll, PS) | 59% | – | – | –
83 | TCCATTTATTTCCATTTATT (sugars lldldldddddddddddlll, PS) | 55% | – | – | –
84 | TCCTCTGCTTATAACTT (sugars l3 d12 l2, PS) | – | 53% | 62% | –
85 | TCCTTTAGCATTTCTAT (sugars l3 d11 l3, PS) | – | 45% | 60% | –
86 | TCTACCCTAAATTCCC (sugars l2 d11 l3, PS) | – | 14% | 29% | –
87 | TCTATATCAAGTTCCTT (sugars l2 d11 l4, PS) | – | 51% | 43% | –
88 | TCTCATGACCACCTAA (sugars l2 d10 l4, PS) | – | 39% | 54% | –
